The source of these data is ChEMBL document CHEMBL1150078, “A Novel Class of Non-Peptidic Endothelin Antagonists Isolated from the Medicinal Herb Phyllanthus niruri” (J Nat Prod, 1995).

Common to all, as to type: cell-based
The target in assay [1] is T1, Endothelin-1 receptor (Homo sapiens) (UniProt P25101).
T1 sequence (whole entry): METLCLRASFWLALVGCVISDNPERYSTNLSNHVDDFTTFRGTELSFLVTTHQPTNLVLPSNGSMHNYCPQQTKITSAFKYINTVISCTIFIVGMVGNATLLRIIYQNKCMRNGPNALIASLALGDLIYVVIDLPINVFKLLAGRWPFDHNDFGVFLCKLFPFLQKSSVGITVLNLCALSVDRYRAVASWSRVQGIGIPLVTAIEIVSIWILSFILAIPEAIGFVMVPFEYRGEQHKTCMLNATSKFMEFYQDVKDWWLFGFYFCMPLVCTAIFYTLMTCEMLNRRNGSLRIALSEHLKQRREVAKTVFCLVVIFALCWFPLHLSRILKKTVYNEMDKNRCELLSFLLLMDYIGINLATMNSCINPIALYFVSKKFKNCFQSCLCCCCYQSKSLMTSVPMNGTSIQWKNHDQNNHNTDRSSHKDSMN
The assay is described as follows: Activity at human recombinant ETA receptor expressed in CHO cells assessed as inhibition of endothelin-1-induced increase in extracellular acidification rate at 100 uM by microphysiometry.

Assay [2] concerns the target T1, Endothelin-1 receptor (Homo sapiens). The experiment in a line: Activity at human recombinant ETA receptor expressed in CHO cells assessed as inhibition of endothelin-1-induced increase in extracellular acidification rate at 20 uM by microphysiometry.
The target in assay [3] is T2, Endothelin receptor type B (Homo sapiens, UniProt P24530).
T2 sequence (P24530 whole entry): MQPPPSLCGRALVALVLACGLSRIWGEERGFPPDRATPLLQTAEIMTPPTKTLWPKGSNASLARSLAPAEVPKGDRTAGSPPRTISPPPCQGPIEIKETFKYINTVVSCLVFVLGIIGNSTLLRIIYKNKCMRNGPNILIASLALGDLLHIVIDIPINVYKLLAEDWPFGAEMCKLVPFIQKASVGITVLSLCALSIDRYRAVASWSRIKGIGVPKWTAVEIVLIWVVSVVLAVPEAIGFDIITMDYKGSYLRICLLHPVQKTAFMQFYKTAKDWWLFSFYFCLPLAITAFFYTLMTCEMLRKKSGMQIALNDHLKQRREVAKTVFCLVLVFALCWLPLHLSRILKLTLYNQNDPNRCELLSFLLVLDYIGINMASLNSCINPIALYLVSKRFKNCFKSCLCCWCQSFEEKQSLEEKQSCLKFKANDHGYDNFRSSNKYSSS
The assay is described as follows: Displacement of [125I]endothelin-1 from human recombinant ETB receptor expressed in CHO cells.

In assay [4] the target is T3, Endothelin-1 receptor (Rattus norvegicus, UniProt P26684).
T3 sequence (P26684 whole entry): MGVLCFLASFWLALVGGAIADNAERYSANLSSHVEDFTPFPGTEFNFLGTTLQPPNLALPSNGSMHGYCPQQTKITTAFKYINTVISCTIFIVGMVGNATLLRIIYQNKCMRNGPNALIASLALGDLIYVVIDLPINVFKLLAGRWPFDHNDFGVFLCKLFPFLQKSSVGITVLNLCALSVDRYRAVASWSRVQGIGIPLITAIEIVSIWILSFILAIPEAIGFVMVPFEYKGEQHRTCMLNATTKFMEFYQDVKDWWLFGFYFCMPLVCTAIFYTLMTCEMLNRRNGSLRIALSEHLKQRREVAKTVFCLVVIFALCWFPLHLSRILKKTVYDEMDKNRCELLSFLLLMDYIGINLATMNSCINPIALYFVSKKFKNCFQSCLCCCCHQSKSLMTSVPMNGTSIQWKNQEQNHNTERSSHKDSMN
The assay is described as follows: Displacement of [125I]endothelin-1 from ETA receptor in rat A10 cells by scintillation counting.

For assay [5], the target named is T4, Endothelin receptor type B (Homo sapiens) (UniProt P24530).
T4 sequence (whole entry): T2 sequence (P24530 whole entry)
The assay is described as follows: Activity at human recombinant ETB receptor expressed in CHO cells assessed as inhibition of endothelin-1-induced increase in extracellular acidification rate at 20 uM by microphysiometry.

In assay [6] the target is T5, Endothelin-1 receptor (Homo sapiens, UniProt P25101).
T5 sequence (P25101 whole entry): T1 sequence (whole entry)
The experiment in a line: Displacement of [125I]endothelin-1 from human recombinant ETA receptor expressed in CHO cells.

Assay [7] addresses T4, Endothelin receptor type B (Homo sapiens). The assay is described as follows: Activity at human recombinant ETB receptor expressed in CHO cells assessed as inhibition of endothelin-1-induced increase in extracellular acidification rate at 100 uM by microphysiometry.

pIC50: −log10 of the molar value. The source made the active and inactive calls. No cut-off for these calls is given here.

For `COC[C@@H]1Cc2cc(OC)c3c(c2[C@H](c2ccc(OC)c(OC)c2)[C@H]1COC)OCO3` [HYPOPHYLLANTHIN], the inhibition in assay [1] turned out to be 39%; in assay [2], 28%. The pIC50 in assay [3] was under 3.30; on Endothelin-1 receptor [4], 3.24; on Endothelin-1 receptor [6], 4.40. The outcome in assay [5] and in assay [7] was inactive.
Turning to `COC[C@H](Cc1ccc(OC)c(OC)c1)[C@H](COC)Cc1ccc(OC)c(OC)c1` [PHYLLANTHIN], the pIC50 in assay [3] was under 3.30; on Endothelin-1 receptor [4] it was under 3.00; at Endothelin-1 receptor [6], under 3.00.
As for `COc1cc(C)c(OC)c2c1C[C@@H](C(=O)O)C[C@H]2c1ccccc1`, the pIC50 at Endothelin-1 receptor [6] is 3.80.
Take `COC[C@@H]1Cc2cc3c(c(OC)c2[C@H](c2ccc(OC)c(OC)c2)[C@H]1COC)OCO3` [NIRTETRALIN]: the pIC50 in assay [3] was under 3.30; on Endothelin-1 receptor [4], 3.40; at Endothelin-1 receptor [6], 4.12.
